pIC50, pKi: −log10 of the molar value. Values after ≈ are worked out from the molar mass of the structure shown.
Columns and labels:
[1] = target: T1, Somatostatin receptor type 5 (Homo sapiens, UniProt P35346); experiment: Displacement of [125I]11-Tyr somatostatin-14 from human SST5R expressed in CHO cells; assay type: cell-based
[2] = target: T1, Somatostatin receptor type 5; experiment: Antagonist activity at human SST5R expressed in CHO cells assessed as reversal of somatostatin-14 induced cAMP response; assay type: functional, cell-based
[3] = Solubility at pH 6.5 by lyophilisation solubility assay; assay type: physicochemical; conditions: buffer
[4] = Distribution coefficient, log D at pH 7.4; assay type: physicochemical; conditions: octanol/water
[5] = Passive membrane permeability by PAMPA; assay type: ADME; conditions: read-out: permeability
Histamine H1 receptor = Histamine H1 receptor (Homo sapiens, UniProt P35367); experiment: Binding affinity to histamine H1 receptor
[6] = target: Voltage-gated inwardly rectifying potassium channel KCNH2 (Homo sapiens, UniProt Q12809); experiment: Inhibition of hERG channel; assay type: toxicity
[7] = target: Somatostatin receptor type 1 (Homo sapiens, UniProt P30872); experiment: Binding affinity to human SST1R
[8] = target: Somatostatin receptor type 2 (Homo sapiens, UniProt P30874); experiment: Binding affinity to human SST2R
[9] = target: Somatostatin receptor type 3 (Homo sapiens, UniProt P32745); experiment: Binding affinity to human SST3R
[10] = target: Somatostatin receptor type 4 (Homo sapiens, UniProt P31391); experiment: Binding affinity to human SST4R
Chain of Somatostatin receptor type 4 (P31391 whole entry): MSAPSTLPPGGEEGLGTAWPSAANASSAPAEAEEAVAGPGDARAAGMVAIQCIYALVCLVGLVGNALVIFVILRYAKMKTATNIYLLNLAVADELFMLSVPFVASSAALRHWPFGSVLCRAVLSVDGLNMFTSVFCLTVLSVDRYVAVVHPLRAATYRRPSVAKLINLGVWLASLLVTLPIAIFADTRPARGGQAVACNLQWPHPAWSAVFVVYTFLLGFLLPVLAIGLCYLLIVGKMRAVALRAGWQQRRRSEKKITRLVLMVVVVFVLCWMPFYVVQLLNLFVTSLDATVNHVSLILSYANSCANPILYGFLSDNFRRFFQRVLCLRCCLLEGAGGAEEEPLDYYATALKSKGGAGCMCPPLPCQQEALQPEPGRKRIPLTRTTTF

T1 sequence (P35346 whole entry): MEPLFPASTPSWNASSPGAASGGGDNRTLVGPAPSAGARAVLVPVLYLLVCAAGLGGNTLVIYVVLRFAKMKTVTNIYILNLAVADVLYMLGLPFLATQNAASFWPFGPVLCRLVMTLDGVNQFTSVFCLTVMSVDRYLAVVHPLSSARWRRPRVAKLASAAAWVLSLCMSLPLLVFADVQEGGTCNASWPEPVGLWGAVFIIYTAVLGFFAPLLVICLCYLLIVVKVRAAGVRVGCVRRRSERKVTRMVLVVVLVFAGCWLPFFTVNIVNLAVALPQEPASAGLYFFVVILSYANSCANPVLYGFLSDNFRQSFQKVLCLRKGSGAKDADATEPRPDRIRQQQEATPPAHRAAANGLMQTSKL
Chain of Voltage-gated inwardly rectifying potassium channel KCNH2 (Q12809 whole entry): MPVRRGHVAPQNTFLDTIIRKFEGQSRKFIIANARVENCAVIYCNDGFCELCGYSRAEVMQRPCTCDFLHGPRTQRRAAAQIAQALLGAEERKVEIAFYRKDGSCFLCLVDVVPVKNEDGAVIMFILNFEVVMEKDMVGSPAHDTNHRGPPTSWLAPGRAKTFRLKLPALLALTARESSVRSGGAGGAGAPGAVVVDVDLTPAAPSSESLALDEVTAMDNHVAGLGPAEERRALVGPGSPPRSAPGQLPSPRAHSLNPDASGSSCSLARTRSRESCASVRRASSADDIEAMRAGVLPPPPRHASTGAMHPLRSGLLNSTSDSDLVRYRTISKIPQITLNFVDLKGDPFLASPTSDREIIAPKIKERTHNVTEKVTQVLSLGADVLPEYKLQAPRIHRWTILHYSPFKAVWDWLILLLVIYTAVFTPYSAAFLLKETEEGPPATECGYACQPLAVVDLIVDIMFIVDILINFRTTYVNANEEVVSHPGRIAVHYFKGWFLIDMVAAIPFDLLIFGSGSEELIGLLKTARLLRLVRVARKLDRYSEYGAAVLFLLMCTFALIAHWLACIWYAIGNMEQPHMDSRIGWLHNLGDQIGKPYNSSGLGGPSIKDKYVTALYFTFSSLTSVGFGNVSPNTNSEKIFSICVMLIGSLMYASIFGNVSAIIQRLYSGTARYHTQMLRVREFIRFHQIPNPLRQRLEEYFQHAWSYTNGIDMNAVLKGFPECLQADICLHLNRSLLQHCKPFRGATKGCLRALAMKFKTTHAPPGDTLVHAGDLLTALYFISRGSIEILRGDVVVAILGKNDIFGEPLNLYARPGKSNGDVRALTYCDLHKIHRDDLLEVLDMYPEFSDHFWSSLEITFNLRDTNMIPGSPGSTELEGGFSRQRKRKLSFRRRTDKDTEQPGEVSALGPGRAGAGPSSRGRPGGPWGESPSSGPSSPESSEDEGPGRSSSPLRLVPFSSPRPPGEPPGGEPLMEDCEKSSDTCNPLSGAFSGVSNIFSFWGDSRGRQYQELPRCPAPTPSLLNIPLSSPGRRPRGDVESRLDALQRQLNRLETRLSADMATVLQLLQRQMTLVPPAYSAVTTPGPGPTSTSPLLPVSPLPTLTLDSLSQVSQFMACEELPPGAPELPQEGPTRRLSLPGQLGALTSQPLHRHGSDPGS
Chain of Histamine H1 receptor (P35367 whole entry): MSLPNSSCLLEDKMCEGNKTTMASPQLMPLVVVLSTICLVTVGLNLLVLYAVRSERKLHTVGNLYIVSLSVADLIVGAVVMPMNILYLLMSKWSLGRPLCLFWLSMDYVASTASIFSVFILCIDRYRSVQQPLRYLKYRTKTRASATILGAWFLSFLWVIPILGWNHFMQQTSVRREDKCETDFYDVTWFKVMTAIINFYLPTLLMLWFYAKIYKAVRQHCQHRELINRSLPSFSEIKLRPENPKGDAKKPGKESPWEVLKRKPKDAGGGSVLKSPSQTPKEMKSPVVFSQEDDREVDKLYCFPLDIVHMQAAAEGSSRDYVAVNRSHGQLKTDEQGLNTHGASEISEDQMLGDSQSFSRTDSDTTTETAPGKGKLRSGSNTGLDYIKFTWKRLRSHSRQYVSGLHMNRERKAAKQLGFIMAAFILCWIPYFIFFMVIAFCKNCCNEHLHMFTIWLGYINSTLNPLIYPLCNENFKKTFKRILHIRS
Chain of Somatostatin receptor type 1 (P30872 whole entry): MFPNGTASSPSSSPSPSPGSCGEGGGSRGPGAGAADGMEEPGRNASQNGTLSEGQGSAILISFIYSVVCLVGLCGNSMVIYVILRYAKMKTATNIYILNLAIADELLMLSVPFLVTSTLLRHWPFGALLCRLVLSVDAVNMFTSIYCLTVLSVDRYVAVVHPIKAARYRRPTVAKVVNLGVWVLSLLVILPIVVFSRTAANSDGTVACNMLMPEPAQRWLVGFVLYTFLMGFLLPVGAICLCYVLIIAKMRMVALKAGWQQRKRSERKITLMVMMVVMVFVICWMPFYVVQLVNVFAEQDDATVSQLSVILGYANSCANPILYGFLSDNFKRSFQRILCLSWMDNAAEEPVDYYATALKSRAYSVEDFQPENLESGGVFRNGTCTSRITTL
Chain of Somatostatin receptor type 3 (P32745 whole entry): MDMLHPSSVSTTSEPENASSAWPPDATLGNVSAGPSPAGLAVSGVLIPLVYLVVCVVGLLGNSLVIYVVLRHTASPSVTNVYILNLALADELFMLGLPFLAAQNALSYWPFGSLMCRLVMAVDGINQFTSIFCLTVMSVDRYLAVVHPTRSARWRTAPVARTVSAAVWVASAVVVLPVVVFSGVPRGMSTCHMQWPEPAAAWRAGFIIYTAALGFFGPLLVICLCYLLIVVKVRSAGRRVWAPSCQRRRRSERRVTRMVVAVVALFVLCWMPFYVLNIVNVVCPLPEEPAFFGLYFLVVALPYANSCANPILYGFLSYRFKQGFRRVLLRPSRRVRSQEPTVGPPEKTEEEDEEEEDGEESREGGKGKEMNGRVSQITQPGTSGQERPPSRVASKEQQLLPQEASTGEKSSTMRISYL
Chain of Somatostatin receptor type 2 (P30874 whole entry): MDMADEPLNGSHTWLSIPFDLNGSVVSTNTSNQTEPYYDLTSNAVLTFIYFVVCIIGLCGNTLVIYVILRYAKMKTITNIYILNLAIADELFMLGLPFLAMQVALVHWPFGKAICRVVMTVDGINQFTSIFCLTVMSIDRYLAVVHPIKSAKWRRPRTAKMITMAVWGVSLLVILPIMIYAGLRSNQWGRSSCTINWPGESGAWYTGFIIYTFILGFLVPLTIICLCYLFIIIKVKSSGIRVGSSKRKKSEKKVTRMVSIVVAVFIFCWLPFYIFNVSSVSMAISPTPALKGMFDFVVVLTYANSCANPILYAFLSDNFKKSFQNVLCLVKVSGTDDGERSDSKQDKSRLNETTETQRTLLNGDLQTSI

| Structure (SMILES) | pKi [1] | further results |
| --- | --- | --- |
| CCOc1cc(CN2CCC(Nc3nc4ccccc4o3)CC2)ccc1OC | 6.92 | pIC50 [2]: 6.13; solubility [3]: 130 µg/mL (≈ 341 µM); logD [4]: 2.92; Papp [5]: 4.44 ×10⁻⁶ cm/s; pKi (Histamine H1 receptor): 6.20; pIC50 [6]: > 7.00 |
| COc1ccc(CN2CCC(Nc3nc4ccccc4o3)CC2)cc1OCC(C)C | 7.64 | – |
| Fc1ccc(CCN2CCC(Nc3nc4ccccc4n3Cc3ccc(F)cc3)CC2)cc1 | < 5.00 | – |
| Fc1ccc(Cn2c(NC3CCN(CC4CCc5ccccc5C4)CC3)nc3ccccc32)cc1 (stereo unspecified) | < 5.00 | – |
| Fc1ccc(Cn2c(NC3CCN(CCCc4ccccc4)CC3)nc3ccccc32)cc1 | < 5.00 | – |
| CCOc1cc(CN2CCC(Nc3nc4ccccc4o3)CC2)ccc1Cl | 6.95 | – |
| CCOc1cc(CN2CCC(Nc3nc4ccccc4o3)CC2)ccc1C | 7.43 | – |
| CCOc1cc(CN2CCC(Nc3nc4ccccc4o3)CC2)ccc1OC(F)(F)F | 6.28 | – |
| Fc1ccc(Cn2c(NC3CCN(Cc4ccccc4)CC3)nc3ccccc32)cc1 | 5.21 | – |
| Fc1ccc(Cn2c(NC3CCN(Cc4ccc5c(c4)CCO5)CC3)nc3ccccc32)cc1 | 5.79 | – |
| Fc1ccc(Cn2c(NC3CCN(Cc4ccc5[nH]ccc5c4)CC3)nc3ccccc32)cc1 | 5.40 | – |
| CCOc1cc(CN2CCC(Nc3nc4cc(S(N)(=O)=O)ccc4o3)CC2)cc(OCC)c1N | 7.89 | pKi [7]: < 5.00; pKi [8]: < 5.00; pKi [9]: < 5.00; pKi [10]: < 5.00 |
| CCOc1cc(CN2CCC(Nc3nc4ccccc4o3)CC2)ccc1O | 7.18 | – |
| Cc1cccc2c(CN3CCC(Nc4nc5ccccc5n4Cc4ccc(F)cc4)CC3)c[nH]c12 | 5.84 | – |
| COc1cc(CN2CCC(Nc3nc4ccccc4s3)CC2)c(OC)c2ccccc12 | 6.17 | – |
| COc1cc(CN2CCC(Nc3nc4ccccc4s3)CC2)ccc1O | 5.29 | – |
| CCOc1cc(CN2CCC(Nc3nc4ccccc4s3)CC2)ccc1O | 6.83 | – |
| CCOc1cc(CN2CCC(Nc3nc4ccccc4s3)CC2)ccc1OC | 6.49 | – |
| COc1cc(CN2CCC(Nc3nc4ccccc4o3)CC2)c(OC)c2ccccc12 | 6.10 | – |
| CCOc1cc(CN2CCC(Nc3nc4cc(S(N)(=O)=O)ccc4o3)CC2)ccc1Cl | 7.77 | – |
| COc1ccc(CN2CCC(Nc3nc4ccccc4s3)CC2)cc1OC | 5.75 | – |
| CCCOc1cc(CN2CCC(Nc3nc4ccccc4o3)CC2)ccc1OC | 6.53 | – |
| COc1ccc(CN2CCC(Nc3nc4ccccc4o3)CC2)cc1OC1CCCC1 | 7.08 | – |
| CCOc1cc(CN2CCC(Nc3nc4ccccc4o3)CC2)ccc1F | 6.71 | – |
| COc1cc(CN2CCC(Nc3nc4ccccc4n3Cc3ccc(F)cc3)CC2)c(OC)c2ccccc12 | 5.91 | – |
| CCOc1cc(CN2CCC(Nc3nc4cc(S(N)(=O)=O)ccc4o3)CC2)ccc1OC | 6.73 | pIC50 [6]: 5.46 |
| Fc1ccc(Cn2c(NC3CCN(CCc4ccc(OC(F)(F)F)cc4)CC3)nc3ccccc32)cc1 | < 5.00 | – |
| COc1ccc(CN2CCC(Nc3nc4ccccc4n3Cc3ccc(F)cc3)CC2)cc1 | 5.40 | – |
| Fc1ccc(Cn2c(NC3CCN(CCc4ccccc4)CC3)nc3ccccc32)cc1 | 5.30 | – |
| COc1ccc(CCN2CCC(Nc3nc4ccccc4n3Cc3ccc(F)cc3)CC2)cc1 [ASTEMIZOLE] | 5.39 | – |
